In paper PMC11157491, “Novel Alaninamide Derivatives with Drug-like Potential for Development as Antiseizure and Antinociceptive Therapies—In Vitro and In Vivo Characterization” (ACS Chemical Neuroscience, 2024):

Experiments:
[1] = system: GABAA ion channel; assay: GABAA ion channel [3H]GABA binding (agonist radioligand); settings: 100 μM, rat hippocampus
Procedure: (§1) Binding/functional studies were carried out commercially in Eurofins Laboratories (Poitiers, France) and Eurofins Panlabs Discovery Services Taiwan, Ltd. (New Taipei City, Taiwan) using testing procedures that were reported previously (for details, see Table S2).
(§2) Table S2. Radioligand binding and functional assays. […]
GABAA ion channel [3H]GABA (agonist radioligand)
(§3) Potassium channel (hERG) […]
(§4) Assays were performed commercially in Eurofins Laboratories ( Poitiers, France) or Eurofins Panlabs Discovery Services
(§5) Taiwan, Ltd. (New Taipei City, Taiwan).

[2] = system: fast voltage-gated sodium channels in rat prefrontal cortex pyramidal neurons; assay: Patch-clamp recording of fast sodium currents; format: cell-based; settings: control = 1.0
Procedure: Due to the relatively high concentration of compounds used in the in vitro assays, as well as brain concentration of 28 (>10 μM after 25 mg/kg dose administration) determined in the pharmacokinetic studies (see Section 2.10), it seems unlikely that compounds described herein act by any of mechanisms tested in the aforementioned binding and functional studies. […] Thus, in further in vitro assays, 28 was also evaluated for its influence on fast voltage-gated sodium channels in rat prefrontal cortex pyramidal neurons using the patch-clamp technique (maximal currents were evoked by rectangular voltage steps to −10 mV).
The averaged, maximal normalized amplitudes of voltage-gated sodium currents were 1.0 in control, 0.72 ± 0.06 after application of 28, and 0.86 ± 0.05 after wash-out (control vs 28p < 0.05).
Patch-clamp studies in prefrontal cortex pyramidal neurons. The methodology of slice preparation, preparation of dispersed cortical neurons, and sodium current recording technique were the same as in our previous study.[75]

[3] = system: mice; assay: PTZ-induced kindling; format: in vivo; settings: for percentage of fully kindled mice: PTZ 40 mg/kg; for mean seizure severity score: 40 mg/kg
Procedure: The percentage of fully kindled mice in the control group was 77%. […] These slight differences were not statistically significant as compared to the PTZ control group.
Data are shown as means of seizure severity ± SEM (n = 13–15 animals). The statistical significance was evaluated by a mixed-effect model for repeated measures followed by Tukey’s post hoc test: *p < 0.05, **p < 0.01, ***p < 0.001, and ****p < 0.0001 as compared to the control group (GraphPad Prism 8).
The procedure was performed as described in detail in our earlier studies.[15],[65] […] The seizure severity was scored using the modified Racine’s scale. […] 24 h after the last PTZ injection, animals were subjected to the locomotor activity test, the elevated plus maze test, and the forced swim test according to the methods described in detail elsewhere. After behavioral tests, animals were sacrificed and the brains were rapidly removed. Hippocampi and cortices were dissected, frozen, and stored at −80 °C until the assay of determination of GABA and glutamate concentration.
The mean seizure severity scores were calculated for all experimental groups after each PTZ injection and analyzed using a mixed-effect model for repeated measures with Tukey’s post hoc test. Fisher’s exact probability test was used to compare the percentage of fully kindled mice.

[4] = system: mice; assay: Capsaicin-induced pain; format: in vivo; settings: Mus musculus, ip, 30 min before capsaicin
Procedure: The experimental groups consisted of 10 adult male Albino Swiss mice (CD-1, 18–25 g). Each animal was tested only once. Immediately after the assay, the animals were sacrificed by cervical dislocation. Behavioral measurements were observed by trained observers. The in vivo antinociceptive assays were in accordance with Polish regulations and the European Union Directive of 22 Sept 2010 (2010/63/EU). All procedures were carried out according to the rules of the International Council on Laboratory Animal Science (ICLAS) and were approved by the Local Ethics Committee in Cracow, Poland (104/2015, 279/2019, and 614/2022). The tested substances were suspended in a 1% aqueous solution of Tween 80 and were injected i.p. 30 min prior to the test. […] The in vivo procedure for the model of capsaicin-induced nociception was previously reported;[67] the animals were pretreated with vehicle (10 mL/kg, negative control), and the dose–response of investigated compounds was evaluated at 12.5, 25, and 50 mg/kg.
Data are presented as means ± standard error of the mean (SEM). […] Statistically significant differences between groups were calculated using one-way analysis of variance (ANOVA) and the post hoc Dunnett’s multiple comparison test or two-way analysis of variance (ANOVA). […]

[5] = target: T1, GABA transaminase (Rattus norvegicus, UniProt P50554); assay: GABA transaminase assay; format: biochemical; settings: rat brain, read-out: % inhibition of control specific binding
T1 construct: Eurofins (contract assay)
T1 sequence (P50554 28-500): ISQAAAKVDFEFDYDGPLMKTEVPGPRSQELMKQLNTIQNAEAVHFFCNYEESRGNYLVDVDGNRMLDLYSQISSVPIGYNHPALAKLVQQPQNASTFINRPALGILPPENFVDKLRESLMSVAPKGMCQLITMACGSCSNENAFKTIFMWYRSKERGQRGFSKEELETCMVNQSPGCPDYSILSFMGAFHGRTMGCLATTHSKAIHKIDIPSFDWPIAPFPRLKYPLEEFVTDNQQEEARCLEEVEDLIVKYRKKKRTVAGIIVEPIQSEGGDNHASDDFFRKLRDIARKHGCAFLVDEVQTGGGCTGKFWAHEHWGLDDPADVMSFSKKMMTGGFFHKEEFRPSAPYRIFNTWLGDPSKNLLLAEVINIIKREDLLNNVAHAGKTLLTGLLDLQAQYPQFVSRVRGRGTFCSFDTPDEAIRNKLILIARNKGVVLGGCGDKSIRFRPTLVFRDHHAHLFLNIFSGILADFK
Procedure: as §1, §2, §3, §4, §5

In the case of `CC(=O)NC(C)C(=O)N1CCN(c2cccc(OC(F)(F)F)c2)CC1` (stereo not shown) [Compound 28, N-(1-oxo-1-(4-(3-(Trifluoromethoxy)phenyl)piperazin-1-yl)propan-2-yl)acetamide], the “% inhibition of control specific binding” value [1] is reported as 10.0%, the “averaged maximal normalized amplitude of voltage-gated sodium currents” value ([2]; 10 μM, after application) is reported as 0.72 ± 0.06 and the “averaged maximal normalized amplitude of voltage-gated sodium currents” value ([2]; after wash-out) is reported as 0.86 ± 0.05. For the same compound, the “percentage of fully kindled mice” value ([3]; 10 mg/kg i.p. every 24 h) was 71%, the “percentage of fully kindled mice” value ([3]; 20 mg/kg i.p. every 24 h) was 73% and the “percentage of fully kindled mice” value ([3]; 40 mg/kg i.p. every 24 h) was 47%. The “mean seizure severity score” value ([3]; after the first PTZ injection) was 1.00 ± 0.00, the “mean seizure severity score” value ([3]; after the last PTZ injection) was 3.40 ± 0.45 and the ED50 [4] was 27.5 mg/kg. The inhibition at 100 µM [5] was -1.9%.
